# Laboratory results: patent EP0048613B1, “4-0-Substituted -2-deoxystreptamine aminoglycoside derivatives, their preparation and formulations containing them” (ELI LILLY AND COMPANY, priority 1980, dated 1982)
# Read-outs that look alike come from different tables or passages of the source.
# Experiments:
# B. subtilis X12 = assay: Bioautography of thin layer chromatography plate; type: cell-based; conditions: bioautography of TLC plate of the reaction mixture against B. subtilis X12
# Method: Apramycin (54 mg, 0.1 mmol) was dissolved in water (1 ml). Nickel acetate tetrahydrate (100 mg, 0.4 mmol) was added and this solution was diluted with dimethylformamide (5 mi). The mixture was treated with 1-iodo-n-butane (0.115 ml, 1 mmol) and this reaction mixture was stirred at room temperature for 4 days.
# [1] = tested on: Bordetella bronchiseptica 16; assay: MIC, standard agar dilution test; type: cell-based; conditions: read-out: Minimum inhibitory concentration
# Text: (§1) The antibacterial activity of the deprotected compounds of this invention is illustrated by the following in vitro and in vivo test data obtained with representative compounds. In Table I, the minimum inhibitory concentration (MIC) for representative compounds against a wide range of gram-positive and gram-negative bacteria is presented. The MIC values were obtained by the standard agar dilution test.
# [2] = tested on: Citrobacter freundii CF17; assay: MIC, standard agar dilution test; type: cell-based; conditions: read-out: Minimum inhibitory concentration
# Text: as §1
# [3] = tested on: Enterobacter aerogenes C32; assay: MIC, standard agar dilution test; type: cell-based; conditions: Klebsiella aerogenes, read-out: Minimum inhibitory concentration
# Text: as §1
# [4] = tested on: Enterobacter aerogenes EB17; assay: MIC, standard agar dilution test; type: cell-based; conditions: Klebsiella aerogenes, read-out: Minimum inhibitory concentration
# Text: as §1
# [5] = tested on: Enterobacter aerogenes X68; assay: MIC, standard agar dilution test; type: cell-based; conditions: Klebsiella aerogenes, read-out: Minimum inhibitory concentration
# Text: as §1
# [6] = tested on: Enterobacter cloacae 265A; assay: MIC, standard agar dilution test; type: cell-based; conditions: read-out: Minimum inhibitory concentration
# Text: as §1
# Enterobacter cloacae EB5 = assay: MIC, standard agar dilution test; type: cell-based; conditions: read-out: Minimum inhibitory concentration
# Text: as §1
# Escherichia coli EC14 = assay: MIC, standard agar dilution test; type: cell-based; conditions: read-out: Minimum inhibitory concentration
# Text: as §1
# Escherichia coli N10 = assay: MIC, standard agar dilution test; type: cell-based; conditions: read-out: Minimum inhibitory concentration
# Text: as §1
# Escherichia coli TEM = assay: MIC, standard agar dilution test; type: cell-based; conditions: Escherichia coli, read-out: Minimum inhibitory concentration
# Text: as §1
# Hemophilus influenzae 76 = assay: MIC, standard agar dilution test; type: cell-based; conditions: Haemophilus influenzae, read-out: Minimum inhibitory concentration
# Text: as §1
# [7] = tested on: Hemophilus influenzae C.L.; assay: MIC, standard agar dilution test; type: cell-based; conditions: Haemophilus influenzae, read-out: Minimum inhibitory concentration
# Text: as §1
# [8] = tested on: Klebsiella pneumoniae KAE; assay: MIC, standard agar dilution test; type: cell-based; conditions: read-out: Minimum inhibitory concentration
# Text: as §1
# [9] = tested on: Klebsiella pneumoniae X26; assay: MIC, standard agar dilution test; type: cell-based; conditions: read-out: Minimum inhibitory concentration
# Text: as §1
# Proteus inconstans PR33 = assay: MIC, standard agar dilution test; type: cell-based; conditions: Providencia alcalifaciens, read-out: Minimum inhibitory concentration
# Text: as §1
# Proteus morganii PR15 = assay: MIC, standard agar dilution test; type: cell-based; conditions: Morganella morganii, read-out: Minimum inhibitory concentration
# Text: as §1
# Proteus rettgeri C24 = assay: MIC, standard agar dilution test; type: cell-based; conditions: Providencia rettgeri, read-out: Minimum inhibitory concentration
# Text: as §1
# Proteus rettgeri PR7 = assay: MIC, standard agar dilution test; type: cell-based; conditions: Providencia rettgeri, read-out: Minimum inhibitory concentration
# Text: as §1
# [10] = tested on: Pseudomonas aeruginosa Ps18; assay: MIC, standard agar dilution test; type: cell-based; conditions: read-out: Minimum inhibitory concentration
# Text: as §1
# [11] = tested on: Pseudomonas aeruginosa X239; assay: MIC, standard agar dilution test; type: cell-based; conditions: read-out: Minimum inhibitory concentration
# Text: as §1
# [12] = tested on: Pseudomonas aeruginosa X528; assay: MIC, standard agar dilution test; type: cell-based; conditions: read-out: Minimum inhibitory concentration
# Text: as §1
# [13] = tested on: Salmonella heidelberg X514; assay: MIC, standard agar dilution test; type: cell-based; conditions: Salmonella enterica, read-out: Minimum inhibitory concentration
# Text: as §1
# [14] = tested on: Salmonella typhimurium 1335; assay: MIC, standard agar dilution test; type: cell-based; conditions: Salmonella enterica, read-out: Minimum inhibitory concentration
# Text: as §1
# Serratia marcescens SE3 = assay: MIC, standard agar dilution test; type: cell-based; conditions: read-out: Minimum inhibitory concentration
# Text: as §1
# Serratia marcescens X99 = assay: MIC, standard agar dilution test; type: cell-based; conditions: read-out: Minimum inhibitory concentration
# Text: as §1
# Shigella sonnei N9 = assay: MIC, standard agar dilution test; type: cell-based; conditions: read-out: Minimum inhibitory concentration
# Text: as §1
# [15] = tested on: Staphylococcus aureus S13E; assay: MIC, standard agar dilution test; type: cell-based; conditions: Staphylococcus aureus, S13E, read-out: Minimum inhibitory concentration
# Text: as §1
# [16] = tested on: Staphylococcus aureus V41; assay: MIC, standard agar dilution test; type: cell-based; conditions: read-out: Minimum inhibitory concentration
# Text: as §1
# [17] = tested on: Staphylococcus aureus X1.1; assay: MIC, standard agar dilution test; type: cell-based; conditions: read-out: Minimum inhibitory concentration
# Text: as §1
# [18] = tested on: Staphylococcus aureus X400; assay: MIC, standard agar dilution test; type: cell-based; conditions: read-out: Minimum inhibitory concentration
# Text: as §1
# [19] = tested on: Staphylococcus epidermidis EPI1; assay: MIC, standard agar dilution test; type: cell-based; conditions: Staphylococcus epidermidis, EPI1; read-out: Minimum inhibitory concentration
# Text: as §1
# [20] = tested on: Staphylococcus epidermidis EPI2; assay: MIC, standard agar dilution test; type: cell-based; conditions: read-out: Minimum inhibitory concentration
# Text: as §1
# [21] = tested on: Streptococcus group D 9960; assay: MIC, standard agar dilution test; type: cell-based; conditions: D9960, read-out: Minimum inhibitory concentration
# Text: as §1
# [22] = tested on: Streptococcus group D X66; assay: MIC, standard agar dilution test; type: cell-based; conditions: DX66, read-out: Minimum inhibitory concentration
# Text: as §1
# [23] = tested on: Streptococcus pneumoniae Park I; assay: MIC, standard agar dilution test; type: cell-based; conditions: Streptococcus pneumoniae; read-out: Minimum inhibitory concentration
# Text: as §1
# [24] = tested on: Streptococcus pyogenes C203; assay: MIC, standard agar dilution test; type: cell-based; conditions: read-out: Minimum inhibitory concentration
# Text: as §1
# [25] = tested on: Staphylococcus aureus 3055; assay: Subcutaneous therapy of experimental bacterial infection in mice; type: in vivo; conditions: Staphylococcus aureus, 3055, sc, subcutaneous doses at 1 and 5 hours post infection, read-out: Effective dose (ED50)
# Method: Table II illustrates the effective dose (ED50, effective dose to protect 50 percent of the test animals) for representative compounds of this invention against an experimental bacterial infection in mice.
# The EDso values were determined as described by W. E. Wick et al., Journal of Bacteriology, 81 [No. 2], 233-235 (1961).
Compound,zone of inhibition (B. subtilis X12),MIC [1],MIC [2],MIC [3],MIC [4],MIC [5],MIC [6],MIC (Enterobacter cloacae EB5),MIC (Escherichia coli EC14),MIC (Escherichia coli N10),MIC (Escherichia coli TEM),MIC (Hemophilus influenzae 76),MIC [7],MIC [8],MIC [9],MIC (Proteus inconstans PR33),MIC (Proteus morganii PR15),MIC (Proteus rettgeri C24),MIC (Proteus rettgeri PR7),MIC [10],other results
2'-N-Benzylapramycin [Example 7],a zone of inhibition,–,–,–,–,–,–,–,–,–,–,–,–,–,–,–,–,–,–,–,–
2'-N-Allylapramycin [Example 8],a good zone of inhibition,–,–,–,–,–,–,–,–,–,–,–,–,–,–,–,–,–,–,–,–
"CNC1C(OC2OC(CO)C(N)C(O)C2O)OC2CC(NC(=O)C(O)CCN)C(OC3C(N)CC(N)C(O)C3O)OC2C1O (stereo not drawn) [Test compound 1, 2′-N-(S-γ-Amino-α-hydroxybutyryl)apramycin]",–,128 µg/mL,32 µg/mL,16 µg/mL,16 µg/mL,16 µg/mL,64 µg/mL,32 µg/mL,32 µg/mL,16 µg/mL,8 µg/mL,32 µg/mL,64 µg/mL,16 µg/mL,8 µg/mL,16 µg/mL,128 µg/mL,16 µg/mL,8 µg/mL,128 µg/mL,MIC [11]: 64 µg/mL; MIC [12]: 128 µg/mL; MIC [13]: 32 µg/mL; MIC [14]: 16 µg/mL; MIC (Serratia marcescens SE3): 32 µg/mL; MIC (Serratia marcescens X99): 16 µg/mL; MIC (Shigella sonnei N9): 32 µg/mL; MIC [15]: 16 µg/mL; MIC [16]: 32 µg/mL; MIC [17]: 16 µg/mL; MIC [18]: 64 µg/mL; MIC [19]: 16 µg/mL; MIC [20]: 4 µg/mL; MIC [21]: > 128 µg/mL; MIC [22]: > 128 µg/mL; MIC [23]: 32 µg/mL; MIC [24]: 32 µg/mL; ED50 ([25]; challenged with 68.1 LD50's): 6.5 mg/kg
2'-N-(n-Butyl)apramycin [Example 6],a zone of inhibition,–,–,–,–,–,–,–,–,–,–,–,–,–,–,–,–,–,–,–,–
"CNC1C(OC2OC(CO)C(N)C(O)C2O)OC2CC(NC(=O)CN)C(OC3C(N)CC(N)C(O)C3O)OC2C1O (centres unmarked) [Test compound 3, 2′-N-Glycylapramycin]",–,128 µg/mL,64 µg/mL,16 µg/mL,16 µg/mL,16 µg/mL,32 µg/mL,32 µg/mL,32 µg/mL,64 µg/mL,8 µg/mL,32 µg/mL,16 µg/mL,16 µg/mL,8 µg/mL,32 µg/mL,128 µg/mL,16 µg/mL,32 µg/mL,128 µg/mL,MIC [11]: 64 µg/mL; MIC [12]: 128 µg/mL; MIC [13]: 32 µg/mL; MIC [14]: 64 µg/mL; MIC (Serratia marcescens SE3): 32 µg/mL; MIC (Serratia marcescens X99): 16 µg/mL; MIC (Shigella sonnei N9): 16 µg/mL; MIC [15]: 32 µg/mL; MIC [16]: 64 µg/mL; MIC [17]: 16 µg/mL; MIC [18]: 128 µg/mL; MIC [19]: 16 µg/mL; MIC [20]: 8 µg/mL; MIC [21]: > 128 µg/mL; MIC [22]: > 128 µg/mL; MIC [23]: 128 µg/mL; MIC [24]: 64 µg/mL; ED50 ([25]; challenged with 1794 LD50's): 30 mg/kg
